Patent US4481193A, “Des-proline vasopressin antagonists” (SmithKline Beckman Corporation, priority 1984, dated 1984)
*1 amine or outer side, *2 acyl side, *3 side chain or, on linkers, in order; H or OH if unused. Where a SMILES comes first, the peptide text is derived from it. Bridges are numbered along the chain shown (N, C = ends). [ ]: non-standard residue; d: D form. X1 = O=C(CC1(S[*:2])CCCCC1)[*:1]

How the values were obtained:
hydropenic rat = assay: Hydropenic rat screen (anti-ADH activity in vivo); settings: estimated dose delivered ip which reduces Uosm from hydropenic levels to 300 mOsmoles/kg H2O; male rats
Method: (§1) Antagonistic activity toward the natural antidiuretic hormone (anti-ADH activity) is determined, in vitro, in the medullary tissue of hog or human kidneys and, in vivo, in the hydropenic rat. The in vitro assay procedures for vasopressin stimulated adenylate cyclase activation or vasopression binding activity are described by F. Stassen et al., J. Pharmacology and Experimental Therapeutics, 223, 50-54 (1982).
The assay for anti-ADH activity is the hydropenic rat protocol is described below:
Food and water are removed from male rats approximately 18 hours prior to testing. Animals are housed 4 per metabolism cage. At 0 hour, the test compound is administered intraperitoneally to the test group and an equivalent volume of vehicle is administered to both control groups (fasted and non-fasted). Urine volume and osmolality are measured every hour for 4 hours. Test values are recorded as ml of urine excreted (cumulative), mEq/rat electrolyte excreted, mg/rat urea excreted, and osmolality in milli-Osmoles/kg H2 O. A tolerance test is used to determine significance. ED300 is defined as the dose of compound (μg/kg) required to lower urine osmolality to 300 m-Osmoles/kg.

[1] = biological target: T1, vasopressin stimulated adenylate cyclase (Sus scrofa, UniProt P32307); assay: Vasopressin stimulated adenylate cyclase activity, hog kidney medullary membrane; assay type: biochemical; settings: antagonism of vasopressin stimulated adenylate cyclase, read-out: In Vitro (Pig) Ki
T1 construct: from tissue; host or cells: hog kidney medullary membranes
Method: as §1
In the test procedure for assay of adenylate cyclase activity, the amount of ^32 P/cAMP formed in the absence of medullary membrane is determined (blank). The blank value is substracted from all experimental data. The compound is tested for its effect on basal adenylate cyclase activity and/or on vasopressin stimulated activity. Each determination is carried out in triplicate. The Ka value is derived from a Lineweaver-Burkeplot. Rel. Vmax =(Vmax drug/Vmax vasopressin)×100. Ki =I/[Ka'/Ka)-1] where I is the concentration of the antagonist, and Ka' and Ka are the concentrations of vasopressin required to give half-maximal activity of adenylate cyclase in the presence and absence of antagonist, respectively.

[2] = biological target: T2, vasopressin receptors (V2 -receptors) (Sus scrofa, UniProt P32307); assay: 3H-vasopressin binding assay, hog kidney membranes; settings: competitive inhibition of 3H-vasopressin binding, KB = IC50/(1+L/KD), read-out: In Vitro (Pig) KB
T2 construct: from tissue; host or cells: hog kidney medullary membranes
Method: as §1
In the test procedure for binding assays, the amount of ^3 H-vasopressin bound in the absence and in the presence of an excess of vasopressin (7.5×10^-6 M) is measured in triplicate. These values represent total and non-specific binding, respectively. […] This is the average KD value determined on 3 preparations of hog kidney membranes.

[3] = biological target: T3, vasopressin stimulated adenylate cyclase (Homo sapiens, UniProt P30518); assay: Vasopressin stimulated adenylate cyclase activity, human kidney medullary tissue; assay type: biochemical; settings: read-out: In Vitro (Human) Ki
T3 construct: from tissue; host or cells: human kidney medullary membranes
Method: as §1

T2 sequence (P32307 whole entry): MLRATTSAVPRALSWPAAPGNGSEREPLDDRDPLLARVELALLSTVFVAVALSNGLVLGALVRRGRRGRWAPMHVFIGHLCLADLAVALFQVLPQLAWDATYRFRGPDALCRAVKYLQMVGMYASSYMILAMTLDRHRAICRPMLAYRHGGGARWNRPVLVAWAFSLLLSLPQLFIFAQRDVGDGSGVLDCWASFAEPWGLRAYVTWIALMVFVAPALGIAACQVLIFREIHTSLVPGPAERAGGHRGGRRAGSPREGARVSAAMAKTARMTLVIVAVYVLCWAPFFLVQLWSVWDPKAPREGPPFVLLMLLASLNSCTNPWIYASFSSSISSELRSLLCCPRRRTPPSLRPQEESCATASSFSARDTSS
T1 sequence (P32307 whole entry): as above
T3 sequence (P30518 whole entry): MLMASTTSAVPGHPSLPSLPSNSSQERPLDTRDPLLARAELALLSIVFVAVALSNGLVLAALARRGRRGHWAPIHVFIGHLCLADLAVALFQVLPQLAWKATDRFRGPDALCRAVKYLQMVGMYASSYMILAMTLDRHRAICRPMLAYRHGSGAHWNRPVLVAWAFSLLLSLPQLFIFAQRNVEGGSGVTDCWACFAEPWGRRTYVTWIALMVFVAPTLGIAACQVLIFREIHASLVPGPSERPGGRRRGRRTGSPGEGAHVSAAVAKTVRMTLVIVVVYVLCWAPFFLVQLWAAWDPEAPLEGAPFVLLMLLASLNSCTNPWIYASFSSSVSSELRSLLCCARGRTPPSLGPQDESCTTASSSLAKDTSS

Ki [1] [nM]	Kb [2] [nM]	Ki [3] [nM]	SMILES	In Vivo (Rat) ED300 (hydropenic rat) [mg/kg]
–	–	–	CCOc1ccc(C[C@H]2NC(=O)CC3(CCCCC3)SSC[C@@H](C(=O)N3CCC[C@H]3C(=O)N[C@@H](CCCNC(=N)N)C(=O)NCC(N)=O)NC(=O)[C@H](CC(N)=O)NC(=O)[C@H](C(C)C)NC(=O)[C@H](Cc3ccccc3)NC2=O)cc1 [B, [mercapto-β,cyclopentamethylenepropionic acid)2-(O--ethylD-tyrosine)-4-valine-8-argininevasopressin] ([dY](Et)FVNCPRG-NH2; linker N-5 via X1 (inferred); C-terminus assumed)	0.011
2.7	17	9.8	CCOc1ccc(C[C@H]2NC(=O)CC3(CCCCC3)SSC[C@@H](C(=O)N[C@@H](CCCN=C(N)N)C(=O)NCC(N)=O)NC(=O)[C@H](CC(N)=O)NC(=O)[C@H](C(C)C)NC(=O)[C@H](Cc3ccccc3)NC2=O)cc1 [A] ([dY](Et)FVNCRG-NH2; linker N-5 via X1)	–
